In data set [1] the target is T1, Transient receptor potential cation channel subfamily V member 1 (Rattus norvegicus, UniProt O35433). As to the kind of experiment: Antagonist activity at rat TRPV1 expressed in CHO cells assessed inhibition of capsaicin induced calcium influx. Type of data set: functional, cell-based.
Data set [2] has as its target T1, Transient receptor potential cation channel subfamily V member 1. Nature of the data set: Antagonist activity at rat TRPV1 expressed in CHO cells assessed inhibition of acid induced calcium influx. Format: functional, cell-based.
Data set [3] in a line: Aqueous solubility in 0.01N HCl. Type of data set: physicochemical.
The nature of data set [4]: Aqueous solubility in PBS at pH 7. Type of data set: physicochemical.
Data set [5] can be described thus: Aqueous solubility in fasted-state stimulated intestinal fluid at pH 6.8. Format: physicochemical. To be noted: fasted-state simulated intestinal fluid.
The nature of data set [6]: AUC (0 to infinity) in Sprague-Dawley rat at 1 mg/kg, iv. Type of data set: ADME, organism-based. The arrangement: time infinity, dose 1 mg/kg, route intravenous. As to conditions: plasma.
Data set [7] is described as follows: Clearance in Sprague-Dawley rat at 1 mg/kg, iv. Format: ADME, organism-based. Further details: dose 1 mg/kg, route intravenous. As to conditions: in vivo.
Data set [8] can be described thus: Volume of distribution at steady state in Sprague-Dawley rat at 1 mg/kg, iv. Type of data set: ADME, organism-based. The arrangement: dose 1 mg/kg, route intravenous. As to conditions: in vivo, read-out: Vdss.
Data set [9] can be described thus: Half life in Sprague-Dawley rat at 1 mg/kg, iv. Format: ADME, organism-based. The arrangement: dose 1 mg/kg, route intravenous. To be noted: in vivo.
The nature of data set [10]: AUC (0 to infinity) in Sprague-Dawley rat at 5 mg/kg, po. To be noted: plasma. Format: ADME, organism-based. Further details: time infinity, dose 5 mg/kg, route oral.
A short description of data set [11]: Cmax in Sprague-Dawley rat at 5 mg/kg, po. Type of data set: ADME, organism-based. Further details: dose 5 mg/kg, route oral. As to conditions: in vivo.
Data set [12] can be described thus: Oral bioavailability in Sprague-Dawley rat at 5 mg/kg. Type of data set: ADME, organism-based. As to conditions: in vivo.

pIC50: −log10 of the molar value. Values after ≈ are worked out from the molar mass of the structure shown. A value given as a limit tells only on which side of the number the result lay.

T1 sequence (O35433 whole entry): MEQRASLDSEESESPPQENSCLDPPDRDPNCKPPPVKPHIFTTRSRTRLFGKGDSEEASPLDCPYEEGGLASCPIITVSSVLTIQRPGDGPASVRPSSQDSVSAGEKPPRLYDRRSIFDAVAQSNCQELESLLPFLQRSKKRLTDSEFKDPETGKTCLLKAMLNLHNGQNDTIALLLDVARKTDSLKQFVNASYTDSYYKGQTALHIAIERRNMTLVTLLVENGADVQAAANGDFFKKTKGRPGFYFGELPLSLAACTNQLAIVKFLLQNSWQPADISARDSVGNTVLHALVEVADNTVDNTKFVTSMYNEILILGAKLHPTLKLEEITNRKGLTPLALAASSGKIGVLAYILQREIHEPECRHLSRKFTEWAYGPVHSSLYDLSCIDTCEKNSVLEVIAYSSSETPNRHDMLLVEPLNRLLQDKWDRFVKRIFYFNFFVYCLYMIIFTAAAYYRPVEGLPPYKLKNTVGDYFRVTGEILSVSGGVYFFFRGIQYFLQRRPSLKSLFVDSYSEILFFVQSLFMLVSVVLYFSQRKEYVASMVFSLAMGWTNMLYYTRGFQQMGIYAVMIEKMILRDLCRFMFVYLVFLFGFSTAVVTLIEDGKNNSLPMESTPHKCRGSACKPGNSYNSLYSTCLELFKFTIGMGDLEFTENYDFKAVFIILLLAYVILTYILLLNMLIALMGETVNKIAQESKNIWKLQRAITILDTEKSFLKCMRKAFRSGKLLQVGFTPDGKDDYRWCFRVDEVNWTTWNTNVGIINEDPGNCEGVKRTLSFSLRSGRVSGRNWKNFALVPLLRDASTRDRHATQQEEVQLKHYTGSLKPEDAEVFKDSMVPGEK

For `CC(=O)Nc1nc2c(Oc3cc(-c4ccc(C(F)(F)F)cc4)nc(N4CCC(O)CC4)n3)cccc2s1`, the pIC50 is 7.46 in [1] and 7.05 in data set [2]. In addition, the results for the solubility in data set [3], in [4] and in data set [5] were 21 µg/mL (≈ 39.7 µM), 2 µg/mL (≈ 3.78 µM) and 12 µg/mL (≈ 22.7 µM), respectively.

As for `CC(=O)Nc1nc2c(Oc3cc(-c4ccc(C(F)(F)F)cc4)nc(N4CCC(C(=O)O)CC4)n3)cccc2s1`, the pIC50 in data set [1] was 6.39; in data set [2] it was 7.57. The solubility is no more than 1 µg/mL in [3], 6 µg/mL (≈ 10.8 µM) in data set [4] and 3.4 µg/mL (≈ 6.1 µM) in data set [5].

Turning to `CC(=O)Nc1nc2c(Oc3cc(-c4ccc(C(F)(F)F)cc4)nc(N4CCCCC4)n3)cccc2s1`, the pIC50 in [1] is 8.29; in data set [2], 8.82. Further, the solubility in data set [3] was no more than 1 µg/mL; in data set [4] it was no more than 1 µg/mL; in data set [5] it was 2.8 µg/mL (≈ 5.45 µM).

On to `CC(=O)Nc1nc2c(Oc3cc(-c4ccc(C(F)(F)F)cc4)nc(C4=CCN(CC(C)C)CC4)n3)cccc2s1`, for which the area under the curve AUC(0-inf) in data set [6] is 258 ng·h/mL. For the same molecule, in data set [7], the clearance is 67.3 mL/min/kg. In data set [8], the Vd worked out at 6.38 L/kg. In [9], the half-life is 2 h.

Turning to `CC(=O)Nc1nc2c(Oc3cc(-c4ccc(C(F)(F)F)cc4)nc(N)n3)cccc2s1`, the pIC50 in data set [1] is 7.92; in data set [2], 8.32. Also, the solubility in data set [3] is 4.7 µg/mL (≈ 10.6 µM); in [4], 8.8 µg/mL (≈ 19.8 µM); in data set [5] it was 3.5 µg/mL (≈ 7.86 µM).

With `CC(=O)Nc1nc2c(Oc3cc(-c4ccc(C(F)(F)F)cc4)nc(N4CCOCC4)n3)cccc2s1`, the values for the pIC50 in data set [1] and in data set [2] were 7.55 and 8.96, respectively. For the same molecule, the solubility was no more than 1 µg/mL in data set [3], no more than 1 µg/mL in data set [4] and 1.4 µg/mL (≈ 2.72 µM) in [5].

Regarding `CC(=O)Nc1nc2c(Oc3cc(-c4ccc(C(F)(F)F)cc4)nc(NCC4CCN(CC(C)C)CC4)n3)cccc2s1`, the results for the pIC50 in data set [1] and in data set [2] were 7.29 and 7.19, respectively. Moreover, the solubility in [3] was no less than 200 µg/mL; in data set [4], 9.4 µg/mL (≈ 15.7 µM); in data set [5], no less than 200 µg/mL.

As to `CC(=O)Nc1nc2c(Oc3cc(-c4ccc(C(F)(F)F)cc4)nc(NCC4CCCCN4CC(C)C)n3)cccc2s1` (configuration not stated), the pIC50 in data set [1] is 8.21; in data set [2], 7.96. In addition, the solubility in data set [3] is no less than 200 µg/mL; in [4], 9.1 µg/mL (≈ 15.2 µM); in data set [5], 190 µg/mL (≈ 317 µM). The same molecule showed an AUC(0-inf) in data set [6] of 351 ng·h/mL. The molecule also had a clearance in data set [7] of 47.7 mL/min/kg. Besides, in data set [8], the Vd was found to be 8.29 L/kg. This molecule showed a half-life in data set [9] of 2.6 h.

For `CC(=O)Nc1nc2c(Oc3cc(-c4ccc(C(F)(F)F)cc4)nc(NC(C)c4ccccn4)n3)cccc2s1` (configuration not stated), the values for the pIC50 in data set [1] and in data set [2] were 8.82 and 8.80, respectively. For the same molecule, the solubility was no less than 200 µg/mL in data set [3], 6.7 µg/mL (≈ 12.2 µM) in data set [4] and 150 µg/mL (≈ 272 µM) in data set [5]. Also, the AUC(0-inf) was found to be 743 ng·h/mL in data set [6] and 899 ng·h/mL in [10]. The same molecule showed a clearance in data set [7] of 22.5 mL/min/kg. Further, the Vd in [8] came out at 6.44 L/kg. The half-life in data set [9] is 5.5 h. This molecule came in with a Cmax in data set [11] of 280 ng/mL. For the same molecule, in data set [12], the bioavailability amounted to 24%.

Take `CC(=O)Nc1nc2c(Oc3cc(-c4ccc(C(F)(F)F)cc4)ncn3)cccc2s1` [AMG-517]: the solubility in data set [3] and in data set [4] was less than 1 µg/mL throughout.

The values above are taken from ChEMBL document CHEMBL1140568, “Trisubstituted pyrimidines as transient receptor potential vanilloid 1 (TRPV1) antagonists with improved solubility” (Bioorg Med Chem Lett, 2007).
